Results as given in patent US20250197905A1, “LEGIONAMINIC ACID GLYCOSYLTRANSFERASES FOR CHEMOENZYMATIC SYNTHESIS OF GLYCANS AND GLYCOCONJUGATES” (The Regents of the University of California, priority 2022, published 2025).
“And” between values parts separate entries of the source, which are not always exact repeats. Equal entries are not always repeated.

Experiments:
His6-AbGtr18 [1] = assay: Effects of metal ions, EDTA, and DTT on the activity of His6-AbGtr18; type: biochemical, A. baumannii K8; conditions: 10 mM additive; 40° C., 30 minutes; pH 6.0; donor CMP-Leg5,7Ac2
Protocol: Effects of metal ions, EDTA, and a reducing reagent DTT on the activity of His6-AbGtr18. Enzymatic assays were carried out in duplicate at 40° C. for 30 minutes in a total volume of 10 μL in citric acid-sodium citrate buffer ([…], pH 6.0) containing 1 mM CMP-Leg5,7Ac2, 1 mM GalNAcα2AA, His6-AbGtr18 (0.64 μM), and 10 mM of CaCl2), CuSO4, MgCl2, MnCl2, NiSO4, ZnCl2, ethylenediaminetetraacetic acid (EDTA), or dithiothreitol (DTT). Reactions without metal ions, EDTA, or DTT were used as controls. The reactions were quenched by adding 40 μL methanol. Samples were centrifuged, and then analyzed by UHPLC as described above for pH profile studies.

MBP-AbGtr18-His6 = type: biochemical, A. baumannii K8
[2] = system: LpCLS or NmCSS, with or without PmAldolase; type: biochemical
His6-AbGtr18 [3] = type: biochemical, A. baumannii K8

Row | SMILES | Suitability as donor substrate for MBP-AbGtr18-His6 (in words) (MBP-AbGtr18-His6) | Activity of His6-AbGtr18 towards acceptor (in words) (His6-AbGtr18 [3]) | Yield (%) 20 h (His6-AbGtr18 [3]) | also measured
1 | O[C@H](CS)[C@H](O)CS (racemic) [DTT, dithiothreitol] |  |  |  | Effect on the activity of AbGtr18 (His6-AbGtr18 [1]): no significant effect
2 | CC(=O)N[C@@H]([C@H](O)[C@H](NC(C)=O)[C@@H](O)CC(=O)C(=O)O)[C@@H](C)O [CMP-Leg5,7Ac2, 5,7-diacetamido-3,5,7,9-tetradeoxy-D-glycero-D-galacto-non-2-ulosonic acid] | used efficiently |  |  | Sialoside yield (%) 0.5 h (MBP-AbGtr18-His6): 53.5 ± 0.5% and 56.6 ± 1.6%; Sialoside yield (%) 20 h (MBP-AbGtr18-His6): 72.6 ± 0.1% and 99.0 ± 0.6%; CMP-Sia Yield (%) [2]: >99%
3 | [N-]=[N+]=NCC(O)C(N=[N+]=[N-])C1OC(OP(=O)(O)OCC2OC(n3ccc(N)nc3=O)C(O)C2O)(C(=O)O)CC(O)C1N=[N+]=[N-] (centres unmarked) [CMP-Neu5,7,9triN3] | limited activity |  |  | 
4 | [N-]=[N+]=N[C@@H]([C@@H]1OC(OP(=O)(O)OC[C@H]2O[C@@H](n3ccc(N)nc3=O)[C@H](O)[C@@H]2O)(C(=O)O)C[C@H](O)[C@H]1N=[N+]=[N-])[C@H](O)CO (some centres unmarked) [CMP-Neu5,7diN3] | limited activity |  |  | 
5 | CC(=O)NC1C(O)CC(OP(=O)(O)OCC2OC(n3ccc(N)nc3=O)C(O)C2O)(C(=O)O)OC1C(N=[N+]=[N-])C(O)CO (centres unmarked) [CMP-Neu5Ac7N3] | suitable but less efficient donor substrates |  |  | 
6 | CC(=O)N[C@H]1[C@H]([C@H](O)[C@H](O)CN=[N+]=[N-])OC(OP(=O)(O)OC[C@H]2O[C@@H](n3ccc(N)nc3=O)[C@H](O)[C@@H]2O)(C(=O)O)C[C@@H]1O (some centres unmarked) [CMP-Neu5Ac9N3] | efficient |  |  | 
7 | [N-]=[N+]=NCC(=O)N[C@H]1[C@H]([C@H](O)[C@H](O)CO)OC(OP(=O)(O)OC[C@H]2O[C@@H](n3ccc(N)nc3=O)[C@H](O)[C@@H]2O)(C(=O)O)C[C@@H]1O (some centres unmarked) [CMP-Neu5Az] | efficient |  |  | 
8 | Nc1ccn([C@@H]2O[C@H](COP(=O)(O)O[C@@]3(C(=O)O)C[C@H](O)[C@@H](NC(=O)CO)[C@H]([C@H](O)[C@H](O)CO)O3)[C@@H](O)[C@H]2O)c(=O)n1 [CMP-Neu5Gc] | suitable but less efficient donor substrates |  |  | 
9 | [N-]=[N+]=NC1C(O)CC(OP(=O)(O)OCC2OC(n3ccc(N)nc3=O)C(O)C2O)(C(=O)O)OC1C(O)C(O)CO (centres unmarked) [CMP-Neu5N3] | poor donor substrates |  |  | 
10 | [Ca+2].[Cl-].[Cl-] [Ca^2+, CaCl2] |  |  |  | Effect on the activity of AbGtr18 (His6-AbGtr18 [1]): no significant effect
11 | O=S(=O)([O-])[O-].[Cu+2] [Cu^2+, CuSO4] |  |  |  | Effect on the activity of AbGtr18 (His6-AbGtr18 [1]): decreased the reaction yields
12 | O=C(O)CN(CCN(CC(=O)O)CC(=O)O)CC(=O)O [EDTA, ethylenediaminetetraacetic acid] |  |  |  | Effect on the activity of AbGtr18 (His6-AbGtr18 [1]): no effect
13 | CC(=O)N[C@H]1[C@@H](OCCCNC(=O)OCc2ccccc2)O[C@H](CO)[C@H](O)[C@@H]1O [GalNAcαProNHCbz] |  | lower efficiency | 82.5 ± 0.6% | Yield (%) 15 min (His6-AbGtr18 [3]): 14.6 ± 1.1%
14 | CC(=O)N[C@H]1[C@H](OCCCNC(=O)OCc2ccccc2)O[C@H](CO)[C@H](O)[C@@H]1O [GalNAcβProNHCbz] |  | much lower efficiencies | 33.5 ± 0.8% | Yield (%) 15 min (His6-AbGtr18 [3]): 1.7 ± 0.2%
15 | O=[N+]([O-])c1ccc(O[C@H]2O[C@H](CO)[C@H](O)[C@H](O)[C@H]2O)cc1 [GalαpNP, 4-Nitrophenyl-α-D-galactopyranoside] |  | much lower efficiencies | 16.7 ± 0.2% | 
16 | CC(=O)N[C@H]1[C@@H](OCCCNC(=O)OCc2ccccc2)O[C@H](CO)[C@H](O)[C@@H]1O[C@@H]1O[C@H](CO)[C@H](O)[C@H](O)[C@H]1O [Galβ1-3GalNAcαProNHCbz] |  | trace activity | Trace^[e] | 
17 | CC(=O)N[C@H]1[C@H](OCCCNC(=O)OCc2ccccc2)O[C@H](CO)[C@H](O)[C@@H]1O[C@@H]1O[C@H](CO)[C@H](O)[C@H](O)[C@H]1O [Galβ1-3GalNAcβProNHCbz] |  | trace activity | Trace | 
18 | CC(=O)N[C@H]1[C@H](OCCCNC(=O)OCc2ccccc2)O[C@H](CO)[C@@H](O)[C@@H]1O[C@@H]1O[C@H](CO)[C@H](O)[C@H](O)[C@H]1O [Galβ1-3GlcNAcβProNHCbz] |  | much lower efficiencies | 23.9 ± 0.3% | Yield (%) 15 min (His6-AbGtr18 [3]): 0.9 ± 0.1%
19 | O=[N+]([O-])c1ccc(O[C@@H]2O[C@H](CO)[C@H](O)[C@H](O)[C@H]2O)cc1 [GalβpNP, 4-nitrophenyl β-D-galactopyranoside] |  | trace activity | 1.6 ± 0.1% | 
